Several values for one entry are separate records, joined by “and”; a condition that tells them apart may be missing. Equal entries are not always repeated. Where two headings read alike, the source gives them in different places.
How the values were obtained:
SARS-CoV-2 3CL protease [1] = target: T1, SARS-CoV-2 3CL protease (Severe acute respiratory syndrome coronavirus 2, UniProt P0DTD1); assay: biochemical; conditions: for Normalized SARS-CoV-2 3CL protease activity: 0.2 µM protease with 50 µM tested compound, replicates; for activity against SARS-CoV-2 3CL protease (in words): compound 4 analogs
SARS-CoV-2 3CL protease [2] = target: T1, SARS-CoV-2 3CL protease; assay type: biochemical; set-up: Avg: unit not given here; conditions: for Inhibition at 10 µM: 10 µM compound; for Inhibition at 100 µM: 100 µM compound; for IC50 / LogIC50: Figure S1 and S2
[3] = 200 nM protease, read-out: IC50
[4] = Conc 10 µM, average response of dose-response curve
[5] = Conc 15 µM, average response of dose-response curve
[6] = Conc 20 µM, average response of dose-response curve
[7] = Conc 50 µM, average response of dose-response curve
[8] = Conc 100 µM, average response of dose-response curve
[9] = Conc 200 µM, average response of dose-response curve
[10] = dose-response retest of fragment hits
[11] = dose-response curve of fragment hit
[12] = Conc 10 µM, mean response (inhibition) of dose-response curve
[13] = Conc 15 µM, mean response (inhibition) of dose-response curve
[14] = Conc 20 µM, mean response (inhibition) of dose-response curve
[15] = Conc 50 µM, mean response (inhibition) of dose-response curve
[16] = Conc 100 µM, mean response (inhibition) of dose-response curve
[17] = Conc 200 µM, mean response (inhibition) of dose-response curve

SMILES | Inhibition at 10 µM (SARS-CoV-2 3CL protease [2]) | Inhibition at 100 µM (SARS-CoV-2 3CL protease [2]) | Avg (SARS-CoV-2 3CL protease [2]; [4]) | Avg (SARS-CoV-2 3CL protease [2]; [5]) | Avg (SARS-CoV-2 3CL protease [2]; [6]) | Avg (SARS-CoV-2 3CL protease [2]; [7]) | Avg (SARS-CoV-2 3CL protease [2]; [8]) | Avg (SARS-CoV-2 3CL protease [2]; [9]) | IC50 (SARS-CoV-2 3CL protease [2]; [11]) | LogIC50 (SARS-CoV-2 3CL protease [2]; log10 of IC50 in µM) | Avg (SARS-CoV-2 3CL protease [2]; [12]) | Avg (SARS-CoV-2 3CL protease [2]; [13]) | Avg (SARS-CoV-2 3CL protease [2]; [14]) | Avg (SARS-CoV-2 3CL protease [2]; [15]) | Avg (SARS-CoV-2 3CL protease [2]; [16]) | Avg (SARS-CoV-2 3CL protease [2]; [17]) | other results
CC(C)(C)OC(=O)NC(CO)CC1CCNC1=O (stereo not shown) [AZVIII-30] | – | – | – | – | – | – | – | – | – | – | – | – | – | – | – | – | Normalized SARS-CoV-2 3CL protease activity (SARS-CoV-2 3CL protease [1]): 0.9915 and 0.9651 and 0.9186; IC50 (SARS-CoV-2 3CL protease [1]; [3]): > 50 µM; activity against SARS-CoV-2 3CL protease (in words) (SARS-CoV-2 3CL protease [1]): did not produce active compounds
CCOC(=O)/C=C/[C@H](C[C@@H]1CCNC1=O)NC(=O)[C@H](CC(C)C)NC(=O)OC(C)(C)C [AZVIII-33B] | – | – | – | – | – | – | – | – | – | – | – | – | – | – | – | – | Normalized SARS-CoV-2 3CL protease activity (SARS-CoV-2 3CL protease [1]): 1.107 and 0.6918 and 1.159; IC50 (SARS-CoV-2 3CL protease [1]; [3]): > 50 µM; activity against SARS-CoV-2 3CL protease (in words) (SARS-CoV-2 3CL protease [1]): inactive
CC(C)C[C@H](NC(=O)OC(C)(C)C)C(=O)N[C@H](CO)C[C@@H]1CCNC1=O [AZVIII-37A] | – | – | – | – | – | – | – | – | – | – | – | – | – | – | – | – | Normalized SARS-CoV-2 3CL protease activity (SARS-CoV-2 3CL protease [1]): 0.8312 and 1.007 and 1.0118; IC50 (SARS-CoV-2 3CL protease [1]; [3]): > 50 µM; activity against SARS-CoV-2 3CL protease (in words) (SARS-CoV-2 3CL protease [1]): inactive
COC(=O)[C@H](C[C@@H]1CCNC1=O)NC(=O)OC(C)(C)C [AZVIII-38] | – | – | – | – | – | – | – | – | – | – | – | – | – | – | – | – | Normalized SARS-CoV-2 3CL protease activity (SARS-CoV-2 3CL protease [1]): 1.058 and 1.088 and 0.9126; IC50 (SARS-CoV-2 3CL protease [1]; [3]): > 50 µM; activity against SARS-CoV-2 3CL protease (in words) (SARS-CoV-2 3CL protease [1]): did not produce active compounds
O=c1[nH]sc2ccccc12 [AZVIII-40A, 1,2-Benzisothiazol-3(2H)-one, reference compound] | – | – | – | – | – | – | – | – | – | – | – | – | – | – | – | – | IC50 (SARS-CoV-2 3CL protease [1]; IC50): 0.79 µM
Nc1nccnc1S [Z1868316802] | 21% | 92% | 20.5 | 24.1 | 32.6 | 92.3 | 91.8 | 82.9 | – | – | – | – | – | – | – | – | IC50 (SARS-CoV-2 3CL protease [2]; [10]): 23.3 µM; LogIC50 (SARS-CoV-2 3CL protease [2]; log of IC50 in µM): 1.368
OCCc1cnc(S)nc1 [Z2064274637] | 5% | 100% | 5.2 | 28.9 | 36.1 | 91.7 | 103 | 105.7 | – | – | – | – | – | – | – | – | IC50 (SARS-CoV-2 3CL protease [2]; [10]): 23.4 µM; LogIC50 (SARS-CoV-2 3CL protease [2]; log of IC50 in µM): 1.369
CC1(C)C(=O)Nc2ccc(C(=O)CCl)cc21 [Z2160878465] | 7% | 97% | 6.9 | 29.9 | 41.3 | 60 | 96.5 | 106.7 | – | – | – | – | – | – | – | – | IC50 (SARS-CoV-2 3CL protease [2]; [10]): 28.6 µM; LogIC50 (SARS-CoV-2 3CL protease [2]; log of IC50 in µM): 1.456
O=C(CCl)c1csc(N2CCCCC2)n1 [Z2469673977] | 51% | 100% | 51.4 | 56.3 | 64 | 57.3 | 102 | 104.1 | – | – | – | – | – | – | – | – | –
CN1C(=O)CCc2cc(C(=O)CCl)ccc21 [Z2491497303] | 6% | 87% | 5.9 | 25.5 | 13.7 | 51.4 | 86.8 | 97.7 | – | – | – | – | – | – | – | – | IC50 (SARS-CoV-2 3CL protease [2]; [10]): 48.8 µM; LogIC50 (SARS-CoV-2 3CL protease [2]; log of IC50 in µM): 1.688
CN1Cc2cc(C(=O)CCl)ccc2NC1=O [Z2491497315] | 16% | 95% | 15.7 | 35.9 | 38.8 | 78.6 | 95.1 | 102.1 | 24.2 µM | 1.383 | – | – | – | – | – | – | IC50 (SARS-CoV-2 3CL protease [2]; [10]): 24.2 µM; LogIC50 (SARS-CoV-2 3CL protease [2]; log of IC50 in µM): 1.383
O=C(CCl)N1CCN(Cc2ccsc2)CC1 [Z2650385668] | 15% | 86% | – | – | – | – | – | – | 35.7 µM | 1.553 | 14.7 | 16.7 | 31.9 | 63.6 | 86.4 | 96.9 | –
Cc1ccccc1CN1CCCN(C(=O)CCl)CC1 [Z2651952322] | 18% | 91% | – | – | – | – | – | – | 33.1 µM | 1.52 | 17.5 | 31.4 | 33.6 | 62.8 | 90.5 | 99.5 | –
N#Cc1ccnc(S)c1 [Z2687203952] | 12% | 100% | – | – | – | – | – | – | 17.4 µM | 1.241 | 11.5 | 33.9 | 67.8 | 111.2 | 107.8 | 106.7 | –
Cc1cnc(=S)[nH]c1 [Z2768165643] | 41% | 100% | – | – | – | – | – | – | 13 µM | 1.114 | 41.2 | 59.8 | 69.1 | 106.7 | 109.4 | 108.2 | –
O=C(CCl)c1ccc(F)c(C(=O)CCl)c1 [Z2768504793] | 3% | 63% | – | – | – | – | – | – | 50.2 µM | 1.7 | 3.4 | 11.1 | 34.1 | 48.5 | 62.9 | 79.1 | –
C=CS(=O)(=O)c1nc2ccccc2s1 [Z3228044564] | 73% | 100% | – | – | – | – | – | – | – | – | 73.2 | 84.2 | 91.1 | 103.1 | 104 | 112.9 | –
O=C(CCl)COc1ccc(Cl)cc1 [Z3236282166] | 48% | 100% | – | – | – | – | – | – | 11.5 µM | 1.059 | 47.7 | 63.9 | 86.8 | 98.6 | 103.3 | 106 | –
CN(C)C(=O)c1csc(C(=O)CCl)c1 [Z3244705145] | 24% | 89% | – | – | – | – | – | – | 35.9 µM | 1.555 | 23.6 | 22.7 | 40.5 | 58.7 | 89 | 99.3 | –

From paper PMC8989888, “Development of optimized drug-like small molecule inhibitors of the SARS-CoV-2 3CL protease for treatment of COVID-19” (Nature Communications, 2022)
